# Assay results published in US20060008378A1, “Sterilization method” (priority 2004, published 2006).
# System: bacillus used as an index (biological-indicator)
# Details: 15 g of 35% hydrogen peroxide solution vaporized in 3 minutes, about 0.8 m^3 isolator, peak about 1300 ppm, closed state until 1200 seconds
# Protocol: In this Example, the above-mentioned injector 14 is controlled so that hydrogen peroxide solution is continuously dropped for 3 minutes at a flow rate of 5 g/min, and the dropped hydrogen peroxide solution changes to hydrogen peroxide vapor by flash evaporation in an evaporator 12 in an instant.
smiles,measurement,value
"OO [hydrogen peroxide vapor, hydrogen peroxide]",effect of sterilization (culturing the biological-indicator after sterilization),multiplication of the bacillus used as an index is not recognized
